Data from a melting point compilation (Tetko et al.; mined from patent text by program, amines drawn as free bases though some values may be those of a salt).

Work on `CC(C)(C(=O)N1CCc2ccccc2C1)c1ccc(S(=O)(=O)/C=C/C#N)cc1` yielded a melting point of 54 to 60 °C. In the case of `C#CCn1c(=O)c2cc(Cl)ccc2c2ccc(Cl)cc21`, the melting point is reported as 248 to 250 °C. Work on `C=Cc1ccc(C=O)cc1` yielded a melting point of 65.9 °C. Work on `COC(=O)c1coc2cc(Oc3cc(COCc4ccccc4)ncn3)ccc12` yielded a melting point of 85 to 86 °C. Work on `O=C(CCCCCCC(=O)N1CCN(CC(=O)Nc2nc3ccccc3s2)CC1)NO` yielded a melting point of 166 to 170 °C. With `Cc1oncc1C(=O)c1ccc(Cl)cc1` the melting point was 65 to 66 °C. `CC(C)c1cccc(C(C)C)c1NC(=O)C(NCc1ccccc1)c1ccccc1` (centres undefined) showed a melting point of 134 to 137 °C. With `O=c1[nH]c2ccccc2c2c(CO)c(CO)nn12` the melting point was 247 to 250 °C. Compound `O=C1N(Cc2ccc(C(F)(F)F)o2)c2c(F)cccc2C12COc1cc3c(cc12)OCO3` (centres undefined) has a melting point of 116 to 118 °C. `CN1C(=O)C(CC(NC(=O)c2ccc(Cl)cc2)C(=O)O)c2ccccc21` (centres undefined) showed a melting point of 115 to 120 °C. With `N#CC(=NO)c1cccc(Br)c1` the melting point was 91 to 93 °C. With `CS(=O)(=O)Nc1cccc(Nc2nc(NCc3ccccc3CO)c3nc[nH]c3n2)c1` the melting point was 145 to 148 °C. With `O=C1OC(CCCCN2CCN(c3ccccn3)CC2)CN1c1ccccc1` (centres undefined) the melting point was 78 to 81 °C. Compound `O=CNc1ccc(F)c(Cl)c1` has a melting point of 94 to 97 °C. `CCOC(=O)c1nc(N)sc1-c1ccccn1` showed a melting point of 186 to 187 °C. With `COc1ccc(C2CC(=O)N(c3ccccc3)C2)cc1OC` (centres undefined) the melting point was 104 °C. `COc1cc(O)c2c(=O)c3ccccc3n(C)c2c1` showed a melting point of 162 to 164 °C. For `CN(C)CCCCC(=O)c1ccc2c(c1)C(=O)c1cc(C(=O)CCCCN(C)C)ccc1-2`, the melting point was 150 to 151 °C. Work on `COC(=O)c1ccc(SCn2cc(I)cnc2=O)cc1` yielded a melting point of 210 °C. `CCOC(=O)c1cnn2c(C(=O)N3CCN(C(=O)OC(C)(C)C)CC3)c(Cc3cccc(F)c3C)c(-c3ccccc3)c2c1Cl` gave a melting point of 88 to 90 °C. Work on `COc1ccc2c(c1)C13CCN(C)C(C2)C1OCOC3` (centres undefined) yielded a melting point of 134 to 135 °C. `CC(C)(C)[Si](C)(C)Oc1ccc2c(c1)oc(=O)c1c3ccc(O[Si](C)(C)C(C)(C)C)cc3sc21` showed a melting point of 142 to 144 °C. With `COc1cc(COc2nn(-c3ccccc3)cc2C=O)ccc1OCc1nc(-c2ccccc2)cn1C` the melting point was 126 to 127 °C. Compound `CCc1cccc(-c2ccc(S(=O)(=O)N3c4ccccc4CC3C(=O)O)cc2)c1` (centres undefined) has a melting point of 70 to 72 °C. With `Cc1c(CCCCCCCCCC(=O)O)cccc1C(=O)c1ccc(Cl)cc1` the melting point was 74 °C. Work on `O=C(/C=C/C=C/c1ccc(Br)cc1)NCCCC(=O)NO` yielded a melting point of 173 to 175 °C. In the case of `CN(C)CCNC(=O)c1ccc(S(N)(=O)=O)cc1`, the melting point is reported as 150 to 151 °C. Work on `Cc1ncc2cc(-c3c(Cl)cccc3Cl)c(N)nc2n1` yielded a melting point of 287 to 289 °C. With `CCOC(=O)C1=C(c2ccccc2)Nc2n[nH]cc2C1c1ccccc1OC` (centres undefined) the melting point was 195 °C. With `CCOC(=O)c1c(C(C)C)c[nH]c1C` the melting point was 67 to 68.5 °C. `O=C(O)c1ccc(CN(Cc2cc(Br)ccc2OCc2ccccc2)c2ccc(C(=O)O)cc2)cc1` showed a melting point of 271 °C. With `NC(=O)CCN1CCC(C(O)(c2ccc(F)cc2)c2ccc(F)cc2)CC1` the melting point was 136 to 137 °C. `CC(=O)Nc1ccc(S(=O)(=O)NCCCn2ccnc2)cc1` gave a melting point of 178 to 180 °C. Work on `CCNC(=O)Nc1ccc(-c2sc3c(c2CN(C)CCOC)c(=O)n(-c2ccc(N)cc2)c(=O)n3Cc2c(F)cccc2F)cc1` yielded a melting point of 205 to 207 °C. For `COc1ccc(C(=O)Nc2ccc(C(C)(C)c3noc(COc4ccccc4)n3)cc2)cc1OC`, the melting point was 165 to 167 °C. Work on `Cc1cccnc1NC(=O)Nc1cccc2c1C1CC(O)CCN1C2=O` (centres undefined) yielded a melting point of 204 to 206 °C. `O=C1Nc2cc(Cl)ccc2C1c1ncnc2c1cnn2C1CCCC1` (centres undefined) showed a melting point of 288 to 291 °C. In the case of `CCNC(=O)n1nc(Oc2ncc(C(F)(F)F)cc2Cl)cc1C`, the melting point is reported as 85 to 86 °C. In the case of `COc1ccc(CC(=O)O)cc1C12CC3CC(CC(C3)C1)C2`, the melting point is reported as 78 to 79 °C. Compound `O=C(Cc1ccccc1Nc1c(Cl)cccc1Cl)OCc1ccccn1` has a melting point of 80 to 81 °C. In the case of `O=C(Nc1ccccc1)Nc1nc(C=C2SC(=O)NC2=O)cs1`, the melting point is reported as over 300 °C. `Cc1noc2cccc(OCC3CO3)c12` (centres undefined) showed a melting point of 51 to 53 °C. Compound `CCCNC(=O)c1ccc(CCN2CC=C(c3c[nH]c(-c4ccc(F)cc4)c3-c3ccncc3)CC2)cc1` has a melting point of 227 to 230 °C. `COc1ccc2cc(S(N)(=O)=O)[nH]c2c1` gave a melting point of 171 to 172 °C. Work on `COc1ccc([C@@H]2Cc3c(cccc3C(F)(F)F)N(CC3=NCCN3C(=O)OC(C)(C)C)C(=O)[C@@H]2OC(C)=O)cc1` yielded a melting point of 105 to 108 °C. `CC(C)(C)OC(=O)[C@H]1C[C@@H](S(=O)(=O)c2ccccc2F)[C@@H](c2ccccc2F)N1` (racemic) gave a melting point of 202 °C. For `NC(=O)c1ncn2c(-c3cccc(C(F)(F)F)c3)ccnc12`, the melting point was 239 to 240 °C. With `CSc1cc(C)c2ccc(N)nc2n1` the melting point was 204 to 209 °C. For `O=CN1CCC(Oc2c(F)c(F)c(F)c(F)c2F)CC1`, the melting point was 32 to 34 °C. `Cc1ccc(-c2nnc(N3CCCCC3)nc2-c2ccc(C)cc2)cc1` gave a melting point of 141 to 143 °C. `OC(CN1CCCCC1)c1cc(C(F)(F)F)nc2c(C(F)(F)F)cccc12` (centres undefined) showed a melting point of 130 °C. Work on `Cc1cc(-c2cccc(CO)c2)cn2cc(-c3ccc(Cl)cc3)nc12` yielded a melting point of 174 to 177 °C. For `Cc1cc(C)cc(S(=O)(=O)c2c(C(C)C)nc(C)n2C)c1`, the melting point was 126 to 128 °C. Work on `O=S1(=O)NCN(CCCCF)c2cc(Cl)c(Cl)cc21` yielded a melting point of 141 to 143 °C. With `Cc1cccc(Cl)c1NS(=O)(=O)c1n[nH]c(N)n1` the melting point was 217 °C. `N#CCCNC(=O)c1cccc(-c2ccc3occ(-c4ccc(Cl)cc4Cl)c3c2)c1` gave a melting point of 159 to 161 °C. Compound `CC(C)(C)c1ccc([C@H]2CCCN2[S@@](=O)C(C)(C)C)cc1` has a melting point of 45 to 50 °C. For `COc1ccc2c(-c3ccccc3)c(C(=O)c3cccc(Cl)c3)sc2c1`, the melting point was 105 °C. Compound `Nc1nc(N)nc(-c2cnc3ccccc3c2)n1` has a melting point of over 250 °C. Compound `O=C(c1ccccc1)[C@@]1([N+](=O)[O-])[C@@H]2C=C[C@@H](C2)[C@H]1c1ccccc1` (relative stereo) has a melting point of 119 to 120 °C. In the case of `COC1(c2cccc(OCc3ccc4ccccc4c3)c2)CC(C)OC(C)C1` (centres undefined), the melting point is reported as 105 to 107 °C. In the case of `COc1ccc(C2Sc3ccccc3N(CCN(C)C)C(=O)C2OC(C)=O)cc1` (centres undefined), the melting point is reported as 134 to 135 °C. `COc1ccc(C2C3=C(COC3=O)Nc3ccc4cn[nH]c4c32)cc1O` (centres undefined) gave a melting point of 243 to 245 °C. In the case of `CCOC(=O)C1(NS(=O)(=O)c2ccc3c(Cl)cnc(Cl)c3c2)CCCC1`, the melting point is reported as 127 to 129 °C. With `Nc1nc2ccccc2c2c1ncn2CCOCCCc1ccncc1` the melting point was 160 to 162 °C. With `COc1cccc(F)c1-c1cc(NC(=O)C2CCNCC2)ncn1` the melting point was 140 to 143 °C. For `Cc1ccccc1C1c2ccccc2S(=O)(=O)N1C` (single isomer, unassigned; (+)), the melting point was 152 °C. `COC(=O)c1ccc(OCCNC(=O)c2ccc(Cl)cc2)cc1` showed a melting point of 125 to 127 °C. In the case of `O=C(NC1CCN(Cc2ccccc2)CC1)c1cccc(OCc2ccc3ccccc3n2)c1`, the melting point is reported as 60 to 62 °C. In the case of `OCCCOc1ccc(-n2ccnc2)cc1`, the melting point is reported as 76 to 78 °C. In the case of `COc1cc(Nc2c(C#N)cnc3cc(-c4ccc(C(=O)O)cc4)sc23)c(Cl)cc1Cl`, the melting point is reported as over 300 °C. With `NC1=Nc2ccccc2CS1` the melting point was 132 to 135 °C. In the case of `CCOC(=O)C1=C(C)NC(C=NO)=C(C(=O)OCC)C1c1ccccc1Cl` (centres undefined), the melting point is reported as 136 to 137 °C. `COc1ccc(N=C(C#Cc2ccccc2)N2CCN(Cc3ccccc3)CC2)cc1` showed a melting point of 104 °C. Compound `C=CCn1c(C)nc2c1CC(C(=O)OCC)C1=C2NC2(CC1=O)Cc1ccccc1C2` (centres undefined) has a melting point of 164 to 165 °C. Work on `COc1ccc(C(=O)N2c3ccccc3C(N3CCSc4ccccc43)=CC2C)cc1OC` (centres undefined) yielded a melting point of 166 to 168 °C. In the case of `CCc1cccc2c1OC(C(F)(F)F)C(C(=O)O)=C2` (centres undefined), the melting point is reported as 185 to 187 °C. Work on `CCN(CC)CCNC(=O)c1cccc2cc3ccc(I)cc3nc12` yielded a melting point of 80 to 82 °C. In the case of `Cc1nc(SCC(=O)c2cc(-c3ccc(C(F)(F)F)cc3)oc2C)sc1CC(=O)O`, the melting point is reported as 140 to 143 °C. For `CC(C)NS(=O)(=O)c1ccc(N)c(C(=O)N2CCN(C)CC2)c1`, the melting point was 118 to 122 °C. With `O=c1c2ccccc2sn1CCN1CCN(c2ccccc2)CC1` the melting point was 115 to 117 °C. `O=C(CCc1ccc([N+](=O)[O-])cc1)NCCO` showed a melting point of 122 to 125 °C. Work on `O=C(NC(=S)Nc1ccccc1-c1ccccc1F)c1ccccc1` yielded a melting point of 110 to 111 °C. Compound `OCc1ccc2oc(-c3ccc(O)cc3)cc2c1` has a melting point of 248 to 250 °C. `N#Cc1cncc(C=O)c1` gave a melting point of 96 to 98 °C. `COc1ccc2c(c1)CCC[C@H]2NC(=O)c1cccc(Cl)c1O` gave a melting point of 111 to 113 °C. `CCn1cc(CC(=O)O)c(OCCCc2cn(-c3ccc(C(F)(F)F)cn3)nc2C(C)C)n1` gave a melting point of 99 to 100 °C. Work on `CCOC(=O)c1c(C)nc(N2CCCCC2)c2nccnc12` yielded a melting point of 73 to 74 °C. `CCCCCCN(CCCCCC)C(Nc1ccc(OC)cc1OC)=C1C(=O)COC1=O` showed a melting point of 96 to 98 °C. For `Cc1cc(-c2ccccc2)n2nc(C)c(C#N)c2n1`, the melting point was 175 to 177 °C. In the case of `CN(C)CCCOc1ccc(C=CC(=O)N2CCc3c([nH]c4ccccc34)C2c2ccc3c(c2)CCO3)cc1` (centres undefined), the melting point is reported as 186 °C. Compound `O=C(O)Cc1c(C(=O)c2cccc(OCc3ccccc3)c2)[nH]c2cc(Cl)ccc12` has a melting point of 174 to 177 °C. `Cc1nnc2c3ccc(Cl)cc3c(-c3ccccc3)nn12` showed a melting point of 236 to 238 °C. Compound `CC1(c2cc(-c3cccc(CC4SC(N5CCCC5)=NC4=O)c3)ccc2O)CCCCC1` (centres undefined) has a melting point of 109 to 110 °C. `CCOC(=O)C1=Cc2cc(C)cc(Br)c2NC1C(F)(F)F` (centres undefined) showed a melting point of 122 to 124 °C. Work on `ON=Cc1c(-c2ccccc2Br)ccc2c1OCO2` yielded a melting point of 168 to 169 °C. `Nc1c(F)c(N2C[C@@H](N)[C@@H](n3ccnn3)C2)c(F)c2c1c(=O)c(C(=O)O)cn2C1CC1` (relative stereo) showed a melting point of 275 to 277 °C. Work on `Cc1cccc(C)c1NC(=O)N=C1CCCN1C` yielded a melting point of 119 to 120 °C. For `Nc1cc(C[C@H](Nc2nc3ccc(Cl)cc3cc2C(=O)O)C(=O)O)ccc1Oc1nc2ccc(Cl)cc2cc1C(=O)O`, the melting point was over 250 °C.
